Data taken from patent publication US6525211B1, “Herbicidal sulphonylamino(thio)carbonyl compounds” (Bayer Aktiengesellschaft, priority 1995, dated 2003).

Assays:
broad-leaved weeds [1] = assay: Pre-emergence test (Example A); format: in vivo; details: soil watered with preparation 24 hours after sowing, rated after three weeks vs untreated control (0%=no action, 100%=total destruction)
Description: Solvent: 5 parts by weight of acetone
Emulsifier: 1 part by weight of alkylaryl polyglycol ether
(§1) To produce a suitable preparation of active compound, 1 part by weight of active compound is mixed with the stated amount of solvent, the stated amount of emulsifier is added and the concentrate is diluted with water to the desired concentration.
Seeds of the test plants are sown in normal soil, and, after 24 hours, the soil is watered with the preparation of the active compound. It is expedient to keep constant the amount of water per unit area. The concentration of the active compound in the preparation is of no importance, only the amount of active compound applied per unit area being decisive.
After three weeks, the degree of damage to the plants is rated in % damage in comparison to the development of the untreated control. The figures denote:
(§2) 0%=no action (like untreated control) 100%=total destruction

broad-leaved weeds [2] = assay: Post-emergence test (Example B); format: in vivo; details: test plants of 5-15 cm height sprayed, 2,000 l water/ha, rated after three weeks vs untreated control (0%=no action, 100%=total destruction)
Description: as §1
Test plants which have a height of 5-15 cm are sprayed with the preparation of the active compound in such a way as to apply the particular amounts of active compound desired per unit area. The concentration of the spray liquor is chosen so that the particular amounts of active compound desired are applied in 2,000 1 of water/ha. After three weeks, the degree of damage to the plants is rated in % damage in comparison to the development of the untreated control.
as §2

For `CCOc1nn(C(=O)NS(=O)(=O)c2c(C)cccc2OC(C)C)c(=O)n1C` [Example 1, 5-ethoxy-4-methyl-2-(2-isopropoxy-6-methyl-phenylsulphonyl-aminocarbonyl)-2,4-dihydro-3H-1,2,4-triazol-3-one], which “action against broad-leaved weeds (degree of damage to the plants)” value (broad-leaved weeds [1]) is on record?
The value was “very strong action”.

And the “action against broad-leaved weeds (degree of damage to the plants)” value (broad-leaved weeds [2])?
Its value is “very strong action”.

Which melting point does the source give for `CCOc1cccc(C)c1S(=O)(=O)NC(=O)n1nc(OCC)n(C)c1=O` [Example 9, 5-ethoxy-4-methyl-2-(2-ethoxy-6-methyl-phenylsulphonylaminocarbonyl)-2,4-dihydro-3H-1,2,4-triazol-3-one] here?
Its melting point is 162 °C.
